Patent US6413914B1, “Low foam N,N′-dialkylmalamide wetting agents” (Air Products and Chemicals, Inc., priority 2001, dated 2002)

Key:
Type in all cases: physicochemical
[1] = Equilibrium surface tension, Wilhelmy plate method, saturated solutions in distilled water; conditions: for Limiting EST: saturated solution in distilled water, undissolved material filtered off, Wilhelmy plate, 25° C.
Procedure: (§1) Saturated solutions of the materials of Examples 1-3 in distilled water were prepared. After shaking the solutions for ˜24 hours, the undissolved material was removed via filtration. Equilibrium surface tension data were obtained using the Wilhelmy plate method, described in L. Wilhelmy, Ann. Phys. 1863, 119, 177.
The limiting surface tensions represent the lowest surface tensions in water which can be achieved for a given surfactant regardless of the amount of surfactant used and is used to evaluate the effectiveness of a surfactant. Lower surface tensions would allow for the elimination of defects upon application of a formulation onto low energy surfaces.

[2] = Concentration of surfactant in filtered saturated solution in distilled water; conditions: shaken ~24 hours
Procedure: as §1

[3] = Foaming properties, procedure based upon ASTM D 1173-53; conditions: for Initial Foam: foam height at completion of addition
Procedure: The foaming properties of aqueous solutions of N,N′-di-iso-pentyl DL-malamide (Ex 2) and N,N′-di-2-ethylhexyl DL-malamide (Ex 3), were examined using a procedure based upon ASTM D 1173-53. In this test, a 0.1 wt % aqueous mixture of the surfactant was prepared, any undissolved solids were filtered off, and the filtrate was added from an elevated glass pipette to a glass receiver containing the same filtrate. The foam height was measured at the completion of the addition (“Initial Foam Height”) and the time required for the foam to dissipate at the air-liquid interface (“Time to 0 Foam”) was recorded. This test provides a comparison between the foaming characteristics of various surfactants. In general, in coatings, inks, adhesives, fountain solution, agricultural, and electronic chemical formulations, foam is undesirable because it complicates handling and can lead to coating and print defects, and to inefficient application of agricultural materials or electronic chemicals.
The foaming properties of 0.1 wt % solutions of two representative nonionic surfactants, a commercial nonylphenol 15 mole ethoxylate surfactant and a commercial C8 alkyl glucoside surfactant were examined using the procedure based upon ASTM D 1173-53.

[4] = 0.1 wt % aqueous mixture, filtered

Molecule | Limiting EST [1] | lowering the equilibrium surface tension of water (in words) [1] | Concentration of Surfactant in Solution [2] | Time to zero foam [3, 4] | Foam after 5 min [3, 4] | Initial Foam [3, 4] | Time to zero foam ([3]; 0.1 wt % solution)
CCCCC(CC)CNC(=O)CC(O)C(=O)NCC(CC)CCCC (racemic) [Di-2-ethylhexyl DL-malamide (Ex 3), N,N′-Di-2-ethylhexyl DL-malamide] | 38.5 dyne/cm | particularly effective | <0.1 wt. % | ˜2 sec | 0 cm | 1.5 cm | 
CC(C)CNC(=O)CC(O)C(=O)NCC(C)C (racemic) [Di-isobutyl DL-malamide (Ex 1), N,N′-Di-iso-butyl DL-malamide] | 51.3 dyne/cm |  | <1.0 wt. % |  |  |  | 
CC(C)CCNC(=O)CC(O)C(=O)NCCC(C)C (racemic) [Di-isopentyl DL-malamide (Ex 2), N,N′-Di-iso-pentyl DL-malamide] | 42.9 dyne/cm | particularly effective | <0.4 wt. % | 0.583 min | 0 cm | 1.4 cm | 
C8 Alkyl glucoside [reference compound] |  |  |  |  | 1.0 cm | 1.9 cm | 37 min
Nonylphenol 15 mole ethoxylate [reference compound] |  |  |  |  | 4 cm | 5 cm | >5 min
